# Assays:
# Assay in all cases: relative viability (nuclei count vs DMSO), 5 days (fraction); higher = more cells survive
# [1] = compound: C=CCn1c(=O)c2cnc(Nc3ccc(N4CCN(C)CC4)cc3)nc2n1-c1cccc(C(C)(C)O)n1 [Adavosertib] + CC(=O)c1c(C)c2cnc(Nc3ccc(N4CCNCC4)cn3)nc2n(C2CCCC2)c1=O [Palbociclib] (partner 0.5 µM)
# Procedure, shortened: (§1)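 Each reported value is a median over duplicate plates. It expresses relative viability: treated-well nuclei count divided by vehicle-well nuclei count. Lung cancer cell lines in 1536-well plates were dosed by pin tool a day after seeding, alone with one drug or with a fixed anchor-drug dose plus five library-drug doses (not always all listed) in √10 steps, and nuclei were counted after 5 days.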
# Adavosertib + Crizotinib = compound: C=CCn1c(=O)c2cnc(Nc3ccc(N4CCN(C)CC4)cc3)nc2n1-c1cccc(C(C)(C)O)n1 [Adavosertib] + C[C@@H](Oc1cc(-c2cnn(C3CCNCC3)c2)cnc1N)c1c(Cl)ccc(F)c1Cl [Crizotinib] (partner 1 µM)
# Procedure, shortened: as §1
# Adavosertib + Olaparib = compound: C=CCn1c(=O)c2cnc(Nc3ccc(N4CCN(C)CC4)cc3)nc2n1-c1cccc(C(C)(C)O)n1 [Adavosertib] + O=C(c1cc(Cc2n[nH]c(=O)c3ccccc23)ccc1F)N1CCN(C(=O)C2CC2)CC1 [Olaparib] (partner 8 µM)
# Procedure, shortened: as §1
# Nelarabine + Linsitinib = compound: COc1nc(N)nc2c1ncn2[C@@H]1O[C@H](CO)[C@@H](O)[C@@H]1O [Nelarabine] + C[C@]1(O)C[C@@H](c2nc(-c3ccc4ccc(-c5ccccc5)nc4c3)c3c(N)nccn32)C1 [Linsitinib] (partner 1 µM)
# Procedure, shortened: as §1
# Nelarabine + AZD7762 = compound: COc1nc(N)nc2c1ncn2[C@@H]1O[C@H](CO)[C@@H](O)[C@@H]1O [Nelarabine] + NC(=O)Nc1cc(-c2cccc(F)c2)sc1C(=O)N[C@H]1CCCNC1 [AZD7762] (partner 0.2 µM)
# Procedure, shortened: as §1
cell line,measurement,setting,value
EMC-BAC-2,relative viability,[1]; first compound 0.03162 µM,0.542
same,relative viability,[1]; first compound 0.1 µM,0.516
same,relative viability,[1]; first compound 0.3162 µM,0.487
same,relative viability,Adavosertib + Crizotinib; first compound 0.01 µM,0.846
same,relative viability,Adavosertib + Crizotinib; first compound 0.03162 µM,0.754
same,relative viability,Adavosertib + Crizotinib; first compound 0.1 µM,0.887
same,relative viability,Adavosertib + Crizotinib; first compound 0.3162 µM,0.811
same,relative viability,Adavosertib + Olaparib; first compound 0.03162 µM,0.493
same,relative viability,Adavosertib + Olaparib; first compound 0.1 µM,0.51
same,relative viability,Adavosertib + Olaparib; first compound 0.3162 µM,0.453
same,relative viability,Nelarabine + Linsitinib; first compound 0.01 µM,0.958
same,relative viability,Nelarabine + Linsitinib; first compound 0.03162 µM,0.781
same,relative viability,Nelarabine + Linsitinib; first compound 0.1 µM,0.83
same,relative viability,Nelarabine + Linsitinib; first compound 0.3162 µM,0.831
same,relative viability,Nelarabine + Linsitinib; first compound 1 µM,0.859
same,relative viability,Nelarabine + AZD7762; first compound 0.01 µM,1.2
same,relative viability,Nelarabine + AZD7762; first compound 0.03162 µM,1.1
same,relative viability,Nelarabine + AZD7762; first compound 0.1 µM,1.18
same,relative viability,Nelarabine + AZD7762; first compound 0.3162 µM,1.22
same,relative viability,Nelarabine + AZD7762; first compound 1 µM,1.17
